pIC50: −log10 of the molar value. Several values for one entry are separate records, joined by “and”; a condition that tells them apart may be missing. Identical values can stand only once.
Key:
Format in all cases: biochemical
[1] = target: T1, human MMP-1 (amino acids 100-262) (Homo sapiens, UniProt P03956); assay: MMP dose response assay for determining IC50, MMP-1; conditions: recombinant catalytic domain, fluorescent-quench substrate 100 nM
T1 construct: human MMP-1 (amino acids 100-262); made in house
T1 sequence (P03956 100-262): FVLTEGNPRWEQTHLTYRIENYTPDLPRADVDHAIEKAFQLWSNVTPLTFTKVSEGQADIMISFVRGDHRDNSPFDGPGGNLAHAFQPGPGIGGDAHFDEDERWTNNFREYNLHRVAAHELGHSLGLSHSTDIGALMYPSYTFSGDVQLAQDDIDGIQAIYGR
Outline: (§1)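 Recombinant enzymes in 50 mM HEPES pH 7.4, 10 mM CaCl2, 0.05% Brij-35, at empirically set levels keeping activity linear, preincubated 1 h at room temperature with compound in triplicate. Fluorescence-quench peptide substrate (Eu/QSY7) added at 100 nM final. Background-subtracted signal expressed as percent of DMSO control for IC50.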

[2] = target: T2, human MMP-2 (amino acids 1-660) (Homo sapiens, UniProt P08253); assay: MMP dose response assay for determining IC50, MMP-2; conditions: recombinant enzyme, fluorescent-quench substrate 100 nM; read-out: MMP-2
T2 construct: human MMP-2 (amino acids 1-660); made in house
T2 sequence (P08253 110-660): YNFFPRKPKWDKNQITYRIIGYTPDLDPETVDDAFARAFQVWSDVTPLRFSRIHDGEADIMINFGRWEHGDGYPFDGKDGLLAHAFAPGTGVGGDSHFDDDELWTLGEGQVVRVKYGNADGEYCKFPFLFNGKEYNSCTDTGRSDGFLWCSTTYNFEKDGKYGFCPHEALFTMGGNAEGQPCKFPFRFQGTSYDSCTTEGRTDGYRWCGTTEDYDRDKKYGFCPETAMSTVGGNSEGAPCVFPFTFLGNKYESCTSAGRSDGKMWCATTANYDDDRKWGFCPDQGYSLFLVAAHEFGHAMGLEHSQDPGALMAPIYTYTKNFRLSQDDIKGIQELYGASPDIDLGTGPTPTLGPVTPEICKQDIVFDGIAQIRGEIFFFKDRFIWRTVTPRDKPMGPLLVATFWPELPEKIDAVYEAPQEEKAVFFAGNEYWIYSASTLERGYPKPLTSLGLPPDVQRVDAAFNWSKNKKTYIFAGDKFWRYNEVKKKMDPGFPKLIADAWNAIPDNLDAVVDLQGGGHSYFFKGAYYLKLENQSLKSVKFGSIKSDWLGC
Outline: as §1

[3] = target: T3, human MMP-9 (amino acids 107-446) (Homo sapiens, UniProt P14780); assay: MMP dose response assay for determining IC50, MMP-9; conditions: recombinant enzyme, fluorescent-quench substrate 100 nM; read-out: MMP-9
T3 construct: human MMP-9 (amino acids 107-446); made in house
T3 sequence (P14780 107-446): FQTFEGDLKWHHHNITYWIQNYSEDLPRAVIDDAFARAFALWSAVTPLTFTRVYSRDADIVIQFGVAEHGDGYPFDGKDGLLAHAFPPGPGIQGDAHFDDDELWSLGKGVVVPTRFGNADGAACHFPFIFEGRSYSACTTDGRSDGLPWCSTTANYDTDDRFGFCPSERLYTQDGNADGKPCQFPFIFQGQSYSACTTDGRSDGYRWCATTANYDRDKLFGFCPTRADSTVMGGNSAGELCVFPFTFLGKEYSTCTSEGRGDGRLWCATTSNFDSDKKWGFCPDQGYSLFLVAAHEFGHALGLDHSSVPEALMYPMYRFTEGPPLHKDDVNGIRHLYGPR
Outline: as §1

[4] = target: T4, human MMP-3 (amino acids 100-265) (Homo sapiens, UniProt P08254); assay: MMP dose response assay for determining IC50, MMP-3; conditions: recombinant enzyme, fluorescent-quench substrate 100 nM
T4 construct: human MMP-3 (amino acids 100-265); made in house
T4 sequence (P08254 100-265): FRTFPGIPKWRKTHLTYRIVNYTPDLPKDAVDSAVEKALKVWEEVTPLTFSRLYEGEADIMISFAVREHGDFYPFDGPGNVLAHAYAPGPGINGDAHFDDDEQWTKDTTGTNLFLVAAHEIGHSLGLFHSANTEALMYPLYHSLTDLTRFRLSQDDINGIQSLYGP
Description: (§2) MMP Dose Response Assay for Determining IC50
(§3) The following method was used for determining IC50 values of different inhibitor compounds against multiple MMP enzymes. Frozen stocks of recombinantly produced MMPs were prepared in assay buffer (50 mM HEPES pH 7.4, 10 mM CaCl2, 0.05% Brij-35). The following domains were used to produce catalytically active version of the indicated MMP enzymes, human MMP-1 (amino acids 100-262), human MMP-2 (amino acids 1-660), human MMP-3 (amino acids 100-265), human MMP-9 (amino acids 107-446), human MMP-13 (amino acids 103-268), and rat MMP-9 (amino acids 108-446). Enzyme concentrations in the assay were determined empirically and set such that proteolytic activity was maintained in a linear range over the time-course of the experiment. Diluted enzymes were mixed with various test compounds that had been pre-diluted into assay buffer to establish concentration curves ranging from 10^−5 M to 10^−12 M. Compounds were diluted into assay buffer that contained an appropriate concentration of DMSO to maintain this at a constant in all wells. Each concentration for each test compound was tested in triplicate. MMP enzymes were equilibrated with compounds for 1 hour at room temperature, then a fluorescent-quench substrate (Acetyl-Cys(Eu)-Pro-Leu-Gly-Leu-Lys-(QSY7)-Ala-Arg-amide) was added to a final concentration of 100 nM. Following a 15 minute room temperature incubation, the assay plate was read on an EnVision plate reader using the following parameters: excitation wavelength 340 nM, emission wavelength 615 nM, number of flashes 100, delay before reading 300 milliseconds. Data was analyzed by first calculating average background value from wells that contained only substrate, and this value was subtracted from the entire plate. The 100%, or maximum value, was determined by averaging control wells that contained enzyme, substrate and DMSO. For each well, the percent of control was calculated by dividing the well value by the average DMSO value obtained above.
(§4) Additionally, compounds 27, 3, 65, 66, and 97 were tested in vitro for MMP-3, MMP-9 (rat), and MMP-13 antagonism.

[5] = target: T5, human MMP-13 (amino acids 103-268) (Homo sapiens, UniProt P45452); assay: MMP dose response assay for determining IC50, MMP-13; conditions: recombinant enzyme, fluorescent-quench substrate 100 nM
T5 construct: human MMP-13 (amino acids 103-268); made in house
Description: as §2, §3, §4

[6] = target: T6, rat MMP-9 (amino acids 108-446) (Rattus norvegicus, UniProt P50282); assay: MMP dose response assay for determining IC50, rat MMP-9; conditions: rat enzyme
T6 construct: rat MMP-9 (amino acids 108-446); made in house
T6 sequence (P50282 108-446): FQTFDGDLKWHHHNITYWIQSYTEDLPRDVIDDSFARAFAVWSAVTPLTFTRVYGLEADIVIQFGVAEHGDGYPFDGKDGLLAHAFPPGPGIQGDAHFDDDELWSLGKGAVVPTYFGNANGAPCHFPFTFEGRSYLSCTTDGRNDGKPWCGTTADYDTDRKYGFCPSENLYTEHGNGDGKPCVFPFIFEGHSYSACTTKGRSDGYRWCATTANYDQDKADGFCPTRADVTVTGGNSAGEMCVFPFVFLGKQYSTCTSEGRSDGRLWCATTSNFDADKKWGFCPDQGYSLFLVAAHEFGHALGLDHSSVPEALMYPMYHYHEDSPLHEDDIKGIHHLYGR
Description: as §2
as §3, with “Diluted enzymes were mixed with various test compounds that had been pre-diluted into assay buffer to establish concentration curves ranging from 10^−5 M to 10^−12 M. Compounds were diluted into assay buffer that contained an appropriate concentration of DMSO to maintain this at a constant in all wells. Each concentration for each test compound was tested in triplicate. MMP enzymes were equilibrated with compounds for 1 hour at room temperature, then a fluorescent-quench substrate (Acetyl-Cys(Eu)-Pro-Leu-Gly-Leu-Lys-(QSY7)-Ala-Arg-amide) was added to a final concentration of 100 nM.” left out, “For each well, the percent of control was calculated by dividing the well value by the average DMSO value obtained above.” left out

| pIC50 [1] | pIC50 [2] | pIC50 [3] | pIC50 [4] | pIC50 [5] | pIC50 [6] | SMILES |
| --- | --- | --- | --- | --- | --- | --- |
| < 5.00 | 9.43 | 9.19 | 6.31 | 6.39 | – | Cc1ccc(Oc2ccc(N(C[C@@H](C(=O)NO)N3CCC(O)(c4ccc(Br)cc4)CC3)S(C)(=O)=O)cc2)cc1 [Example 65, N-Hydroxy (2S)-2-[4-(4-bromophenyl)-4-hydroxypiperidin-1-yl]-3-{N-[4-(4-methylphenoxy)phenyl],N-methanesulfonylamino}propionamide] |
| – | 7.76 and 7.52 | 8.26 and 7.91 | 6.66 | 7.91 | 6.76 | CC(C)N(C)[C@@H](CN(c1ccc(Oc2ccc(C(F)(F)F)cc2)cc1)S(C)(=O)=O)C(=O)NO [Example 97, N-Hydroxy (2S)-2-[N-methyl,N-(2-prolyl)amino]-3-{N-[4-(4-trifluoromethylphenoxy)phenyl],N-methanesulfonylamino}propionamide] |
| < 5.00 | 8.49 and 8.30 and 8.38 and 7.97 and 8.08 | 8.82 and 8.59 and 9.03 and 8.39 and 8.60 | 6.86 | 8.45 | 7.59 | Cc1ccc(Oc2ccc(N(C[C@@H](C(=O)NO)N3CCOCC3)S(C)(=O)=O)cc2)cc1 [Example 27, N-Hydroxy (2S)-3-{N-[4-(4-methylphenoxy)phenyl],N-methanesulfonylamino}-2-(morpholin-4-yl)propionamide] |
| < 5.00 | 7.39 | 8.54 | 6.09 | 6.07 | – | Cc1ccc(Oc2ccc(N(C[C@H](NCCc3c[nH]c4ccccc34)C(=O)NO)S(C)(=O)=O)cc2)cc1 [Example 66] |

— US20080085893A1, “MATRIX METALLOPROTEASE INHIBITORS” (priority 2006, published 2008)
